Results reported in patent US9758486B1 (priority 2017, dated 2017).
Like-named read-outs stand apart in the source and are kept apart here.

Assays:
[1] = test system: human kidney cancer cells (A-498); test: MTT tumor cell proliferation inhibition test, A-498; assay type: cell-based; details: read-out: Half Inhibitory Concentration IC50, A-498
Description: (§1) The compounds of the present invention were subjected to tumor cell proliferation inhibition test, and conventional MTT method was used.
(§2) Cell lines: human kidney cancer cells (A-498), human lung cancer cells (A-549), human brain astrocytoma cells (U-251). The culture medium was DMEM+15% NBS+double antibody.
(§3) Sample solution preparation: after dissolving with DMSO (Merck), PBS (−) was added to obtain 100 μmol/L solution or homogeneous suspension. The solution was diluted with PBS (−) in DMSO to a final concentration of 0.1, 1, 10, 20, 40, 60, 80, 100 μmol/L.
(§4) Gossypol was used as control solution, prepared under the same condition.
(§5) Cell culture: adherent growth Tumor cells were cultured in 1640 medium containing 10% inactivated neonatal bovine serum and penicillin, streptomycin (1 million U/L), placed in carbon dioxide incubator at 37° C., 5% CO2, and saturated humidity. Cells were treated serially passaged 2-3 times. The first culture was washed with PBS 2 times, and digested with trypsin. Fresh culture medium was added evenly, cells were adjusted to a appropriate concentration and transferred into a new culture flask. Cell in an exponential phase were chosen for the tests.
(§6) MTT Assay for Cell Viability and IC50 Determination:
(§7) Experimental Principle: Living cells mitochondria in the dehydrogenase can reduce yellow MTT to water-insoluble blue-violet product MT (MTT formazan), deposited in the cells. The amount of production is proportional to the number of living cells. […] DMSO can dissolve blue violet crystals, and the color depth is proportional to the amount contained, so the absorbance measured by the microplate reader can reflect the cell viability.
(§8) Methods: The exponential phase cells were digested and counted and seeded in 96-well plates at a density of 2×10^4/mL at 100 μl per well. After 24 hours of incubation, the cells to be tested were treated with 0.1, 1, 10, 20, 40, 60, 80, 100 μmol/L of the compounds. Each experimental group had 5 wells in each concentration, and the culture medium containing 0.4% DMSO was used as control. After 48 hours, the supernatant was discarded, and 100 μl of MTT ((2-(4,5-dimethyl-2-thiazolyl)-3,5-diphenyl-2H-[…]) (1 mg/mL) was added to each well. After another 4 hours, the supernatant was discarded, and 100 μl of DMSO was added to each well. After mixing, the absorbance was measured at 570 nm using a microplate reader. An IC50 calculation software was used to determine the half inhibitory concentration (IC50).

[2] = test system: tumor cells (A-498, A-549, U-251); test: MTT tumor cell proliferation inhibition test, summary in words over the cell lines tested; assay type: cell-based, human; details: summary of Table 1
Description: as §1, §2, §8
These compounds can be used for the study of antitumor agents.

[3] = test system: human brain astrocytoma cells (U-251); test: MTT tumor cell proliferation inhibition test, U-251; assay type: cell-based; details: read-out: Half Inhibitory Concentration IC50, U-251
Description: as §1, §2, §3, §4, §5, §6, §7, §8

[4] = test system: human lung cancer cells (A-549); test: MTT tumor cell proliferation inhibition test, A-549; assay type: cell-based; details: read-out: Half Inhibitory Concentration IC50, A-549
Description: as §1, §2, §3, §4, §5, §6, §7, §8

[5] = A498, A-498 cells, MTT, 48 hours treatment
[6] = U-251 cells, MTT, 48 hours treatment
[7] = A549, A-549 cells, MTT, 48 hours treatment

Row | SMILES | IC50 [1, 5] | antitumor activities (statement in words) [2] | IC50 [3, 6] | IC50 [4, 7] | IC50 ([1]; A498, 48 h) | IC50 ([3]; U-251, 48 h) | IC50 ([4]; A549, 48 h)
1 | C=CC1=NN(c2ccc(C)cc2)C(=O)/C1=C\c1c(O)c(O)c(C(C)C)c2cc(C)c(-c3c(C)cc4c(C(C)C)c(O)c(O)c(C=O)c4c3O)c(O)c12 [Compound I, (Z)-1,1′,6,6′,7,7′-hexahydroxy-5,5′-diisopropyl-3,3′-dimethyl-8′-((5-oxo-1-(p-tolyl)-3-vinyl-1H-pyrazol-4(5H)-ylidene)methyl)-[2,2′-binaphthalene]-8-carbaldehyde] | 11.7 ± 0.65 µM | good antitumor activities in different cell lines | 20.7 ± 0.84 µM | 18.1 ± 0.72 µM | – | – | –
2 | COC1=NN(c2ccc(OC)cc2)C(=O)/C1=C\c1c(O)c(O)c(C(C)C)c2cc(C)c(-c3c(C)cc4c(C(C)C)c(O)c(O)c(C=O)c4c3O)c(O)c12 [F] | > 100 µM | – | 58.2 ± 2.1 µM | 65.9 ± 2.84 µM | – | – | –
3 | C=CC1=NN(c2ccccc2)C(=O)/C1=C\c1c(O)c(O)c(C(C)C)c2cc(C)c(-c3c(C)cc4c(C(C)C)c(O)c(O)c(C=O)c4c3O)c(O)c12 [H, (Z)-1,1′,6,6′,7,7′-hexahydroxy-5,5′-diisopropyl-3,3′-dimethyl-8′-((5-oxo-1-phenyl-3-vinyl-1H-pyrazol-4(5H)-ylidene)methyl)-[2,2′-binaphthalene]-8-carbaldehyde] | > 100 µM | – | 78.7 ± 2.02 µM | > 100 µM | – | – | –
4 | COC1=NN(c2ccc(Cl)cc2)C(=O)/C1=C\c1c(O)c(O)c(C(C)C)c2cc(C)c(-c3c(C)cc4c(C(C)C)c(O)c(O)c(C=O)c4c3O)c(O)c12 [G, (Z)-8′-((1-(4-chlorophenyl)-3-methoxy-5-oxo-1H-pyrazol-4(5H)-ylidene)methyl)-1,1′,6,6′,7,7′-hexahydroxy-5,5′-diisopropyl-3,3′-dimethyl-[2,2′-binaphthalene]-8-carbaldehyde] | 26.5 ± 1.02 µM | good antitumor activities in different cell lines | > 100 µM | 43.4 ± 1.21 µM | – | – | –
5 | CC1=NN(c2c(C)cccc2Cl)C(=O)/C1=C\c1c(O)c(O)c(C(C)C)c2cc(C)c(-c3c(C)cc4c(C(C)C)c(O)c(O)c(C=O)c4c3O)c(O)c12 [K, (Z)-8′-((1-(2-chloro-6-methylphenyl)-3-methyl-5-oxo-1H-pyrazol-4(5H)-ylidene)methyl)-1,1′,6,6′,7,7′-hexahydroxy-5,5′-diisopropyl-3,3′-dimethyl-[2,2′-binaphthalene]-8-carbaldehyde] | – | – | – | – | > 100 µM | 11.5 ± 1.32 µM | > 100 µM
6 | CC1=NN(c2ccc(C)cc2)C(=O)/C1=C\c1c(O)c(O)c(C(C)C)c2cc(C)c(-c3c(C)cc4c(C(C)C)c(O)c(O)c(C=O)c4c3O)c(O)c12 [B, (Z)-1,1′,6,6′,7,7′-hexahydroxy-5,5′-diisopropyl-3,3′-dimethyl-8′-((3-methyl-5-oxo-1-(p-tolyl)-1H-pyrazol-4(5H)-ylidene)methyl)-[2,2′-binaphthalene]-8-carbaldehyde] | 37.6 ± 2.23 µM | – | – | 78.4 ± 2.65 µM | – | – | –
7 | CC1=NN(c2ccc(Cl)cc2)C(=O)/C1=C\c1c(O)c(O)c(C(C)C)c2cc(C)c(-c3c(C)cc4c(C(C)C)c(O)c(O)c(C=O)c4c3O)c(O)c12 [D, (Z)-8′-((1-(4-chlorophenyl)-3-methyl-5-oxo-1H-pyrazol-4(5H)-ylidene)methyl)-1,1′,6,6′,7,7′-hexahydroxy-5,5′-diisopropyl-3,3′-dimethyl-[2,2′-binaphthalene]-8-carbaldehyde] | 24.3 ± 0.91 µM | – | > 100 µM | 36.9 ± 0.83 µM | – | – | –
8 | COC1=NN(c2ccccc2)C(=O)/C1=C\c1c(O)c(O)c(C(C)C)c2cc(C)c(-c3c(C)cc4c(C(C)C)c(O)c(O)c(C=O)c4c3O)c(O)c12 [E, (Z)-1,1′,6,6′,7,7′-hexahydroxy-5,5′-diisopropyl-8′-((3-methoxy-5-oxo-1-phenyl-1H-pyrazol-4(5H)-ylidene)methyl)-3,3′-dimethyl-[2,2′-binaphthalene]-8-carbaldehyde] | 17.8 ± 0.95 µM | good antitumor activities in different cell lines | 26.1 ± 1.8 µM | 26.7 ± 1.12 µM | – | – | –
9 | CC1=NN(c2ccccc2)C(=O)/C1=C\c1c(O)c(O)c(C(C)C)c2cc(C)c(-c3c(C)cc4c(C(C)C)c(O)c(O)c(C=O)c4c3O)c(O)c12 [Compound A, (Z)-1,1′,6,6′,7,7′-hexahydroxy-5,5′-diisopropyl-3,3′-dimethyl-8′-((3-methyl-5-oxo-1-phenyl-1H-pyrazol-4(5H)-ylidene)methyl)-[2,2′-binaphthalene]-8-carbaldehyde] | – | good antitumor activities in all three cell lines tested | – | – | 11.4 ± 1.03 µM | 10.4 ± 0.67 µM | 10.5 ± 0.92 µM
10 | C=CC1=NN(c2ccc(Cl)cc2)C(=O)/C1=C\c1c(O)c(O)c(C(C)C)c2cc(C)c(-c3c(C)cc4c(C(C)C)c(O)c(O)c(C=O)c4c3O)c(O)c12 [J, (Z)-8′-((1-(4-chlorophenyl)-5-oxo-3-vinyl-1H-pyrazol-4(5H)-ylidene)methyl)-1,1′,6,6′,7,7′-hexahydroxy-5,5′-diisopropyl-3,3′-dimethyl-[2,2′-binaphthalene]-8-carbaldehyde] | 13.8 ± 0.85 µM | good antitumor activities in different cell lines | 26.2 ± 1.15 µM | 12.7 ± 1.12 µM | – | – | –
11 | Cc1cc2c(C(C)C)c(O)c(O)c(C=O)c2c(O)c1-c1c(C)cc2c(C(C)C)c(O)c(O)c(C=O)c2c1O [Gossypol] | 11.3 ± 0.28 µM | – | 20.2 ± 1.3 µM | 14.9 ± 0.64 µM | – | – | –
12 | COc1ccc(N2N=C(C)/C(=C/c3c(O)c(O)c(C(C)C)c4cc(C)c(-c5c(C)cc6c(C(C)C)c(O)c(O)c(C=O)c6c5O)c(O)c34)C2=O)cc1 [C] | 25.3 ± 0.95 µM | – | > 100 µM | > 100 µM | – | – | –
13 | C=CC1=NN(c2c(C)cccc2Cl)C(=O)/C1=C\c1c(O)c(O)c(C(C)C)c2cc(C)c(-c3c(C)cc4c(C(C)C)c(O)c(O)c(C=O)c4c3O)c(O)c12 [L, (Z)-8′-((1-(2-chloro-6-methylphenyl)-5-oxo-3-vinyl-1H-pyrazol-4(5H)-ylidene)methyl)-1,1′,6,6′,7,7′-hexahydroxy-5,5′-diisopropyl-3,3′-dimethyl-[2,2′-binaphthalene]-8-carbaldehyde] | > 100 µM | – | > 100 µM | > 100 µM | – | – | –
